Experiments:
[1] = tested on: promoter region of the gene encoding human apoAI; assay: Activity to enhance the expression of human apoAI (apoAI promoter-luciferase reporter in HepG2 cells); assay type: cell-based; settings: HepG2 cells stably expressing apoAI promoter-luciferase reporter; compounds at 0 to 10 μg/mL, 24 hours incubation
Procedure: The promoter region of the gene encoding human apoAI was isolated, and ligated upstream the structure gene of firefly luciferase to construct a reporter plasmid. The reporter plasmid and a marker plasmid conferring the neomycin resistance were co-infected to cell lines derived from human hepatoma, HepG2 cells, and the cell lines were incubated in a selection medium comprising DMEM medium containing 10% fetal calf serum supplemented with G418 (Final concentration: 0.7 mg/mL, Gibco) to give established strains that stably expressed the reporter molecule. The strains were seeded to a 96-well culture plates at a density of 50,000 cells per well, and incubated for 48 hours at 37° C. under an atmosphere of 5% carbon dioxide. […] The concentration of the compounds, which intensified the luciferase activity twice compared to that of control (DMSO without any compound of the invention added) was set as the minimal effective dose (MED).

| Molecule | melting point [°C] | MED (minimum effective dose: concentration of the compound which intensified the luciferase activity twice compared to control) [1] [µg/mL] |
| --- | --- | --- |
| c1ccc(-c2ccc(-c3ccc4ccccc4n3)cc2)cc1 [Ia-12, 2-(biphenyl-4-yl)quinoline] | 180 to 182 | – |
| c1ccc(-c2ccc(-c3cnc4ccccc4n3)cc2)cc1 [Ia-10, 2-(biphenyl-4-yl)quinoxaline] | 126 to 127 | – |
| COc1ccc(-c2cnc3ccccc3n2)cc1 [Ia-3, 2-(4-methoxyphenyl)quinoxaline] | 101 to 102 | – |
| c1ccc2nc(-c3ccsc3)cnc2c1 [Ia-6, 2-(thiophen-3-yl)quinoxaline] | 86 to 87 | – |
| C(=Cc1ccccc1)Sc1ccccn1 [Id-4, 2-styrylsulfanil-pyridine] | – | 1.0 |
| COc1cc(C=CC=Cc2ccccn2)ccc1OC(C)=O [Ic-18, phenyl 2-methoxy-4-(4-pyridin-2-yl-buta-1,3-dienyl)acetate] | – | 1.9 |
| 2-phenyl-5-pyridin-2-yl-penta-2,4-diene nitrile [Ic-76] | – | 0.23 |
| FC(F)(F)c1ccc(C=Cc2ccccn2)cc1 [Ib-9, 2-[2-(4-trifluorophenyl)vinyl]pyridine] | – | 0.71 |
| c1ccc2nc(-c3ccsc3)ccc2c1 [Ia-15, 2-(thiophen-3-yl)quinoline] | 132 to 133 | – |
| Clc1ccc(-c2ccc3ccccc3n2)cc1 [Ia-16, 2-(4-chlorophenyl)quinoline] | 113 to 115 | – |
| 2-(2-thiophen-3-yl-vinyl)benzothiazole [Ib-91] | – | 0.7 |
